Data reported in patent US10017451B2, “Lactic acid extraction” (PURAC BIOCHEM BV, priority 2011, dated 2018).

Columns and labels:
Type in all cases: physicochemical
[1] = MIBK solubility in aqueous MgCl2 solution, gas chromatography (Example 8); conditions: aqueous phase
Protocol: Hereafter, the stirring is stopped, the phases were allowed to separate and a sample was taken from the aqueous bottom phase. The concentration of MIBK in this sample was determined by gas chromatography.

[2] = Stability of solvents in contact with lactic acid feed solution, gas chromatography (Example 6); conditions: 60° C.
Protocol: This experiment was conducted to compare the stability of two solvents, MIBK and Isoamyl alcohol in contact with the lactic acid feed solution as prepared in example 1. For each solvent a closed glass reactor was filled with 20 g of solvent and 20 g of the lactic acid feed solution, put in an oven to maintain a temperature of 60° C. and shaken continuously.
After 3 hrs, 24 hrs (1 day) and 168 hrs (1 week) the shaking was stopped for 1 hour to allow the phases to settle, a sample was taken from the solvent top layer, and the composition of the solvent top layer analyzed by gas chromatography.

[3] = Lactic acid distribution ratio MIBK/aqueous MgCl2 solution (Example 7); conditions: initial lactic acid 20 wt %
From the text: Forward extraction and back extraction as used in the method of the invention are based on the difference in solubility of the lactic acid in water and the organic solvent at different temperatures. The solubility of a compound in one solvent relative to another solvent can be expressed in terms of the distribution ratio (DR). This ratio gives an indication how a compound will be distributed over the aqueous phase (e.g. the aqueous mixture) and the organic phase (e.g. the organic liquid) in a two-phase system at equilibrium. The distribution ratio may be defined as the ratio of the lactic acid concentration dissolved in the organic phase ([lactic acid]organic) over the concentration of the lactic acid dissolved in water ([lactic acid]water) provided that the two phases are in equilibrium with each other: DR=[lactic acid]organic/[lactic acid]water(1)
The resulting two phase system was stirred at 20° C. or 60° C. for 30 minutes with sufficient speed to ensure that both phases are well dispersed. Hereafter, the stirring is stopped, the phases were allowed to separate and samples were taken from both phases. The concentration of lactic acid (wt %) in these samples was determined by potentiometric titration. Hereafter the distribution ratio was calculated as the ratio of the lactic acid concentration (wt %) in the MIBK organic solvent phase divided by the lactic acid concentration (wt %) in the aqueous phase.

CC(=O)CC(C)C [MIBK, methyl-isobutyl-ketone]
MIBK solubility ([1]; MgCl2 0 wt %, 20° C.): 1.8 wt %
MIBK solubility ([1]; MgCl2 0 wt %, 60° C.): 1.4 wt %
MIBK solubility ([1]; MgCl2 15 wt %, 20° C.): 0.48 wt %
MIBK solubility ([1]; MgCl2 15 wt %, 60° C.): 0.20 wt %
MIBK solubility ([1]; MgCl2 30 wt %, 20° C.): 0.17 wt %
MIBK solubility ([1]; MgCl2 30 wt %, 60° C.): 0.11 wt %
changes in purity of the solvent ([2]; after 168 hrs, GC of solvent top layer): no changes in the purity of the MIBK could be detected

CC(C)CCO [isoamyl alcohol]
isoamyllactate concentration ([2]; 24 hrs and 168 hrs samples): 22.5 area %
isoamyllactate formed ([2]; after 3 hrs, GC of solvent top layer): 14.6 area %

CC(O)C(=O)O (stereo not drawn) [lactic acid]
Lactic acid distribution ratio ([3]; MgCl2 0 wt %, 20° C.): 0.16 wt %/wt %
Lactic acid distribution ratio ([3]; MgCl2 0 wt %, 60° C.): 0.19 wt %/wt %
Lactic acid distribution ratio ([3]; MgCl2 10.5 wt %, 20° C.): 0.33 wt %/wt %
Lactic acid distribution ratio ([3]; MgCl2 10.5 wt %, 60° C.): 0.37 wt %/wt %
Lactic acid distribution ratio ([3]; MgCl2 16.0 wt %, 20° C.): 0.49 wt %/wt %
Lactic acid distribution ratio ([3]; MgCl2 16.0 wt %, 60° C.): 0.56 wt %/wt %
